{
  "source": "patent US20160310481A1",
  "about": "“LAQUINIMOD FOR TREATMENT OF CANNABINOID RECEPTOR TYPE 1(CB1) MEDIATED DISORDERS” (Teva Pharmaceutical Industries, Ltd., priority 2012, published 2016)",
  "key": {"[1]": {"tested_on": "glutamatergic transmission in control striatal neurons", "experiment": "Bath application on corticostriatal slices of wild type mice: sEPSCs (basal glutamatergic transmission)", "type": "cell-based"}, "cannabinoid CB1 receptor": {"target": "cannabinoid CB1 receptor (Mus musculus, UniProt P47746)", "sequence (P47746 whole entry)": "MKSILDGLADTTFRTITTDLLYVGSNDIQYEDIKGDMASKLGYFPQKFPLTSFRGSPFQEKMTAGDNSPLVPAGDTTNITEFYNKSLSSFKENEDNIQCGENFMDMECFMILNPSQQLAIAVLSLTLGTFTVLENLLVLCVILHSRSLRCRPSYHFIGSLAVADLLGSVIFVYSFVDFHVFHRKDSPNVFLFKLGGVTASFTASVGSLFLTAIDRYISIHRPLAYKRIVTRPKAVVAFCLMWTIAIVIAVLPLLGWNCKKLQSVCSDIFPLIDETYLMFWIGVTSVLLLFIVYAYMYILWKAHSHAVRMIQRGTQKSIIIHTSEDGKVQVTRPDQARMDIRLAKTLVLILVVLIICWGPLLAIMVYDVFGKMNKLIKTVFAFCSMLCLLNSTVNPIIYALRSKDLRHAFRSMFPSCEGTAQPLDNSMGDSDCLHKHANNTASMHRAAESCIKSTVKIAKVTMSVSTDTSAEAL", "details": "HU210 1 μM", "experimental": "Recordings were performed between 25 and 35 dpi. Mice were killed by cervical dislocation under halothane anaesthesia, and corticostriatal coronal slices (200 μm) were prepared from fresh tissue blocks of the brain with the use of a vibratome (Centonze et al., 2007, 2009; Rossi et al., 2010a,b). A single slice was then transferred to a recording chamber and submerged in a continuously flowing artificial CSF (ACSF) (34° C., 2-3 ml/min) gassed with 95% O2-5% CO2. The composition of the control ACSF was (in mM): 126 NaCl, 2.5 KCl, 1.2 MgCl2, 1.2 NaH2PO4, 2.4 CaCl2, 11 Glucose, 25 NaHCO3. Recording pipettes were advanced towards individual striatal cells in the slice under positive pressure and visual control (WinVision 2000, Delta Sistemi, Italy) and, on contact, tight GΩ seals were made by applying negative pressure. The membrane patch was then ruptured by suction and membrane current and potential monitored using an Axopatch 1D patch clamp amplifier (Axon Instruments, Foster City, Calif., USA). Whole-cell access resistances measured in voltage clamp were in the range of 5-20 MΩ. Whole-cell patch clamp recordings were made with borosilicate glass pipettes (1.8 mm o.d.; 2-3 MΩ), in voltage-clamp mode, at the holding potential (HP) of −80 mV. […] Synaptic events were stored by using P-CLAMP (Axon Instruments) and analyzed off line on a personal computer with Mini Analysis 5.1 (Synaptosoft, Leonia, N.J., USA) software. […] Offline analysis was performed on spontaneous and miniature synaptic events recorded during fixed time epochs (3-5 min, 3-6 samplings), sampled every 5 or 10 minutes. […]\nFor data presented as mean ±SE, n indicates the number of cells. One to six cells per animal were recorded. […] Multiple comparisons were analysed by one-way ANOVA followed by Tukey's HSD test. Comparisons between two groups were analysed by paired or unpaired Student's t-test. […]"}, "[2]": {"tested_on": "GABAergic transmission in control striatal neurons", "experiment": "Bath application on corticostriatal slices of wild type mice: sIPSCs (basal GABAergic transmission)", "type": "cell-based"}, "rat model of ADHD": {"tested_on": "rat model of ADHD", "experiment": "Rat model of ADHD", "type": "in vivo", "details": "compared to control rats", "method": "Laqunimod is tested in a rat model of ADHD."}, "DAT-CI mice": {"tested_on": "DAT-CI mice", "experiment": "Mouse model of ADHD (DAT-CI mice)", "type": "in vivo", "excerpt": "DAT cocaine-insensitive (DAT-CI) mice have a triple point-mutation in the cocaine-binding site of the dopamine […] (DAT) gene. The behavior of DAT-CI mice mimics human ADHD behavior. As previously described, the sensitivity of CB1 receptors controlling GABA-mediated synaptic currents in the striatum of DAT-CI mice was completely lost. ([…] et al., 2011)."}, "[3]": {"tested_on": "human subjects diagnosed with ADHD", "experiment": "Human ADHD trial", "type": "in vivo", "details": "compared to the control group", "method": "Laquinimod is administered to human subjects diagnosed with ADHD."}, "spinal cord of EAE mice": {"tested_on": "spinal cord of EAE mice", "experiment": "Histological evaluation of spinal cord of EAE mice", "type": "in vivo, C57BL/6 mice", "method": "At least 5 mice per group were transcardially perfused through the left cardiac ventricle with saline, plus EDTA 0.5 M for 5-10 min followed by fixation with cold 4% paraformaldehyde (PFA) (Sigma, St Louis, Mo.) in 0.1 M phosphate buffer (pH 7.4). Subsequently, spinal cords and brains were carefully dissected out and post-fixed in 4% PFA for 3-4 h and processed for paraffin embedding. The quantification of neurological damage was performed on 5 µm paraffin CNS sections obtained from HC, LQ-EAE mice, and untreated-EAE mice. Three different staining were used to detect inflammatory infiltrates (H&E), demyelination (Luxol fast blue) and axonal damage (Bielshowsky). Imunohistochemistry for CD3 (pan-T cell marker, Serotec Ltd, Oxford, UK), and BS-I isolectin B4 (biotinilated from Sigma, St Louis, Mo.) was performed to investigate T cells and macrophages within the inflammatory cellular infiltrates, respectively. […] Neuropathological findings were quantified on an average of 18-20 complete cross-sections of spinal cord per mouse taken at 8 different levels of the spinal cord. The number of perivascular inflammatory infiltrates were calculated and expressed as the numbers of inflammatory infiltrates per mm^2, demyelinated areas and axonal loss were expressed as percentage of damaged area per mm2. The number of T cells and macrophages lining within the subarachnoid space or infiltrating the CNS parenchyma was calculated and expressed as the number of cells per mm2. An Olympus microscope for the acquisitions of pictures was used. Statistical analysis was performed using the unpaired Student's t-test."}, "EAE mice": {"tested_on": "EAE mice", "experiment": "EAE induction and disease evaluation, preventive daily s.c. LQ treatment", "type": "in vivo, C57BL/6 mice", "details": "preventive treatment 0-26 dpi, daily s.c. 1-25 mg/kg", "method": "Female C57BL/6 mice at 6-8 weeks of age were purchased from Charles River (Calco, Milan, Italy) and housed in pathogen-free conditions. All procedures involving animals were performed according to the guidelines of the San Raffaele Scientific Institute Institutional Animal Care and Use Committee.\nEAE was induced by immunization with 3 subcutaneous injection of 100 μl each, containing a total of 200 μg of myelin oligodendrocyte glycoprotein (MOG) peptide 35-55 (Multiple Peptide System) in incomplete Freund's adjuvant and 8 mg/ml of Mycobacterium tuberculosis (strain H37Ra; Difco). Pertussis toxin (Sigma) (500 ng) was injected on the day of the immunization and again two days later. Body weight and clinical score (0=healthy; 1=limp tail; 2=ataxia and/or paresis of hindlimbs; 3=paralysis of hindlimbs and/or paresis of forelimbs; 4=tetraparalysis; 5=moribund or death) were recorded daily.\nEAE mice were treated once daily by subcutaneous (s.c.) injection of LQ (supplied by Teva Pharmaceutical Industries, Netanya, Israel) (thereafter referred as LQ-EAE). LQ was administered at different doses (from 1 to 25 mg/kg) starting the same day of immunization up to 26 days post immunization (d.p.i.). Sham treated EAE mice (thereafter referred as untreated-EAE) and healthy control mice (thereafter referred as HC) were used as controls. […]"}, "[4]": {"tested_on": "striatal glutamatergic transmission", "experiment": "Whole-cell patch clamp of striatal neurons from EAE mice: glutamate-mediated sEPSCs", "type": "in vivo", "details": "LQ-EAE mice 25 mg/kg, n=20; untreated-EAE 4.0±0.2, HC 2.7±0.2"}, "[5]": {"details": "LQ 1 μM, 12 minutes, compared to pre-drug values, first mention"}, "[6]": {"details": "LQ 1 μM bath application, control neurons"}, "[7]": {"details": "LQ 1 μM, 12 minutes, control neurons, compared to pre-drug values, second mention"}, "[8]": {"details": "LQ-EAE vs control, dose dependent"}},
  "note": "Where two headings read alike, the source gives them in different places.",
  "data": [
    {"compound": "N#Cc1cc2[nH]c(=O)c(=O)[nH]c2cc1[N+](=O)[O-]", "note": "[CNQX]", "values": [
      {"measurement": "blockade of sEPSCs", "setting": "[1]; recorded in the presence of LQ, n=5, CNQX 10 μM", "value": "fully blocked"}
    ]},
    {"compound": "CCCCCCC(C)(C)c1cc(O)c2c(c1)OC(C)(C)[C@@H]1CC=C(CO)C[C@@H]21", "note": "[HU210]", "values": [
      {"measurement": "sIPSC frequency during HU210, respect to pre-drug values", "setting": "cannabinoid CB1 receptor; control slices, 10 min, n=8", "value": "76±3", "unit": "%"},
      {"measurement": "sIPSC frequency during HU210, respect to pre-drug values", "setting": "cannabinoid CB1 receptor; striatal neurons from untreated EAE mice, n=10", "value": "101±3", "unit": "%"}
    ]},
    {"compound": "CCN(C(=O)c1c(O)c2c(Cl)cccc2n(C)c1=O)c1ccccc1", "note": "[LQ, N-ethyl-N-phenyl-1,2-dihydro-4-hydroxy-5-chloro-1-methyl-2-oxoquinoline-3-carboxamide]", "values": [
      {"measurement": "amplitude of sIPSCs", "setting": "[2]; LQ 1 μM bath application", "value": "failed to alter"},
      {"measurement": "frequency of sIPSCs", "setting": "[2]; LQ 1 μM bath application", "value": "failed to alter"},
      {"measurement": "sIPSC decay time", "setting": "[2]; [5]", "value": "98±3", "unit": "%"},
      {"measurement": "sIPSC rise time", "setting": "[2]; [5]", "value": "101±2", "unit": "%"},
      {"measurement": "sIPSC frequency during HU210, respect to pre-drug values", "setting": "cannabinoid CB1 receptor; striatal neurons from LQ-EAE mice (25 mg/kg), n=10", "value": "75±3", "unit": "%"},
      {"measurement": "amplitude of sEPSCs", "setting": "[1]; [6]", "value": "failed to alter"},
      {"measurement": "frequency of sEPSCs", "setting": "[1]; [6]", "value": "failed to alter"},
      {"measurement": "sIPSC decay time", "setting": "[1]; [7]", "value": "101±2", "unit": "%"},
      {"measurement": "sIPSC rise time", "setting": "[1]; [7]", "value": "99±1", "unit": "%"},
      {"measurement": "sEPSC amplitude", "setting": "[1]; LQ 10-30 μM bath application, control neurons, n=10", "value": "reducing sEPSC amplitude"},
      {"measurement": "frequency of sEPSCs, respect to pre-drug values", "setting": "[1]; highest concentration of LQ, n=7", "value": "83±2.7", "unit": "%"},
      {"measurement": "result in rat model of ADHD", "setting": "rat model of ADHD", "value": "positive results"},
      {"measurement": "sensitivity of CB1 receptors to CB1 receptor agonist HU210", "setting": "DAT-CI mice; DAT-CI mice", "value": "restored sensitivity"},
      {"measurement": "locomotor activity", "setting": "DAT-CI mice; DAT-CI mice compared to control mice", "value": "decreased locomotor activity"},
      {"measurement": "result in human ADHD subjects", "setting": "[3]", "value": "alleviation of inattention, hyperactivity or impulsivity"},
      {"measurement": "Demyelination", "setting": "spinal cord of EAE mice; [8]", "value": "reduced"},
      {"measurement": "axonal loss", "setting": "spinal cord of EAE mice; [8]", "value": "reduced"},
      {"measurement": "number of T lymphocytes (CD3+) in cellular infiltrates", "setting": "spinal cord of EAE mice; LQ-EAE vs untreated-EAE mice", "value": "diminished number"},
      {"measurement": "number of microglia/macrophages (Isolectin B4+) in cellular infiltrates", "setting": "spinal cord of EAE mice; LQ-EAE vs untreated-EAE mice", "value": "diminished number"},
      {"measurement": "numbers of infiltrates within spinal cord sections", "setting": "spinal cord of EAE mice; LQ-EAE vs untreated-EAE mice", "value": "reduction in numbers of infiltrates"},
      {"measurement": "effect on EAE clinical course", "setting": "EAE mice", "value": "significantly suppresses EAE in a dose-dependent manner"},
      {"measurement": "frequency of sEPSCs", "setting": "[4]", "value": "3.4±0.4", "unit": "Hz"}
    ]}
  ]
}
